The assay has as its target T1, human GnRH receptor (Homo sapiens, UniProt P30968).
T1 construct: expressed in transfected cells; host or cells: CHO (Chinese Hamster Ovary) cells
T1 sequence (P30968 1-328): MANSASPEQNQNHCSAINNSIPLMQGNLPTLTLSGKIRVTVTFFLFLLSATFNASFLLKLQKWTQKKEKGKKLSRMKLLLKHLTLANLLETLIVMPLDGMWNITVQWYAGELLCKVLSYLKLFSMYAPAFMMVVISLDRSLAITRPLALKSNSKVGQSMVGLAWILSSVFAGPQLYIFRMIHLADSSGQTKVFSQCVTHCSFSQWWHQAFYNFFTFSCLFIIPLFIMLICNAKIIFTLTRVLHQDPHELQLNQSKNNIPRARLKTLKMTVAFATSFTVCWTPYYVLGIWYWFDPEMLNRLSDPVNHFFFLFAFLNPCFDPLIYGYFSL
The assay can be described thus: 125I-leuprorelin binding inhibition, membrane fraction of CHO cells expressing human GnRH receptors. The following applies: CHO cell membrane fraction, 25° C., 60 minutes, Hill plot, read-out: 125I-leuprorelin binding inhibitory rate IC50 value.

Counter-ions that a name gives are not always drawn.

Take `CCOC(=O)c1cn(Cc2c(F)cccc2F)c2cc(-c3ccc(NC(=O)CC)cc3)c(CN(C)Cc3ccccc3)cc2c1=O` [Example 3, 6-(N-benzyl-N-methylaminomethyl)-1,4-dihydro-1-(2,6-difluorobenzyl)-7-(4-propionylaminophenyl)-4-oxoquinoline-3-carboxylic acid ethyl ester hydrochloride]: the IC50 came to 50 nM.

For orientation: IC50 means the midpoint of a concentration-inhibition curve.

For the origin of these results see patent US5807869A, “Quinoline derivatives, their production and use” (Takeda Chemical Industries, Ltd., priority 1995, dated 1998).
